The numbers were not newly measured in patent publication US6338847B1, “Compositions and methods to disinfect contact lenses” (Allergan, priority 1993, dated 2002), which cites them from elsewhere.

The data set deals with cyst form of acanthamoeba.

As to `OO` [hydrogen peroxide], the “survival of cysts exposed to hydrogen peroxide” value (exposed for two hours) is on record as “survived after two weeks”.

B1: lysozyme (protein, UniProt P61626 19-148, looked up)
Lysozyme C: KVFERCELARTLKRLGMDGYRGISLANWMCLAKWESGYNTRATNYNAGDRSTDYGIFQINSRYWCNDGKTPGAVNACHLSCSALLQDNIADAVACAKRVVRDPQGIRAWVAWRNRCQNRDVRQYVQGCGV
notes: cellulose and/or chitin decomposing enzyme component; a primary tear protein
For B1, for the setting “lysozyme included in the hydrogen peroxide solution”, the “time to killing all the cysts” value was no more than 30 min.
